According to patent publication US6872712B1, “Cyclic glycerophosphates and analogs thereof” (Yeda Research and Development Co. Ltd., priority 1999, dated 2005):

Key:
insulin receptor = assay: Tyrosine phosphorylation of the insulin receptor in CHO-T cells; assay type: cell-based; details: 20 mins, 0.1 μM 1,3 cPP in combination with 0.1 nM insulin (FIG. 10)
Method: Group 4: 0.1 μM 1,3, cPP only.
Tyrosine phosphorylation was determined using anti-phosphotyrosine antibody (as described above).

cell lysate phosphatases = assay: Inhibition of phosphatase activity of cell lysate (PNPP substrate); assay type: biochemical; details: 50 μM, 50 mM PNPP, 90 minutes at 37° C., pH 7.4
Method: Inhibition of phosphatase activity of cell lysate by cyclic phosphates was assayed in 1.0 ml of 50 mM Tris-HCl buffer, pH 7.4, containing 50 mM p-nitrophenyl phosphate, PNPP, as a substrate. Reaction was initiated by the addition of crude cell lysate (100 μg/ml final protein concentration) and terminated after 90 minutes at 37° C. by an addition of 50 μl of 1M NaOH. […] Assays were conducted under the same conditions as above in the presence of 50 μM cyclic phosphate. The enzyme activity in the absence of inhibitor was taken as 100% activity.

[1] = tested on: T47D human breast cancer cells; assay: Proliferation of T47D human breast cancer cells (3H-thymidine); assay type: cell-based; details: 50 μM 1,3-cPP salt, days 1, 2 and 3 (P 0.0370, 0.0192, 0.0238) (FIG. 12)
Method: In this experiment, 8×10^4 T47D (clone 11) human breast cancer cells were plated in sets of 6 in 96 well microtiter plates and titrated concentrations (1-50 μM final concentrations) of 1,3-cPP salt in complete medium were added to the cultures at the beginning of the experiment only in a total volume of 200 μl per well. Plates were incubated at 37° C. over the course of 5 days, where 1 plate was pulsed with ^3H-thymidine (Sigma) overnight each day and subsequently frozen. All the plates were harvested together (Packard Micromate 196 Harvester, Merriden, Conn.) and scored on a 96 well plate reader (Packard Matrix 96, Merriden, Conn.).

K562 leukemia cells = assay: Differentiation of K562 leukemia cells (hemoglobin, benzidine assay); assay type: cell-based; details: 4 days, 10 μM 1,3 cPP in combination with 1.5 mM sodium butyrate (FIG. 13)
Method: K562 leukemia cells are able to differentiate to the erythroid lineage. Such differentiation is characterized by the cells' ability to synthesize hemoglobin. Sodium butyrate is a known differentiation agent of such leukemia cells.
In this example, the ability of 1,3 cPP, α-GP and sodium butyrate alone and n combination to cause differentiation of K562 cells was evaluated using the known benzidine assay.
K562 cells were incubated for a period of 4 days with the following: • (a) growth medium (control); • (b) 10 μM of 1,3 cPP; • (c) […] of α-GP; • (d) 1.5 mM of sodium butyrate; • (e) a combination of sodium butyrate and 1,3 cPP; and • (f) sodium butyrate and α-GP.

[2] = tested on: tyrosine phosphorylated proteins in CHO cells; assay: Tyrosine phosphorylation in CHO cells (Western blot with anti-phosphotyrosine antibodies); assay type: cell-based, Chinese hamster; details: CHO cells, 1, 3, 5 or 10 mins at 37° C., 1 μM or 2 μM, monoclonal antibodies (FIG. 2)
Method: Chinese hamster ovary (CHO) cells (Puck, 1985; Gottesman, 1987) and NIH-3T3 cells (NIH), were used in the following experiments. CHO cells were grown at 37° C. in a humidified 5% CO2 atmosphere in 60×15 mm Petri dishes (Falcon) containing F12 medium supplemented with 10% fetal calf serum (FCS) and 2 mM glutamine. When reaching near confluence, the cells were placed under overnight starvation by replacing the medium to F12+2 mM glutamine with 0.1% FCS. The stimulation experiments were performed with cells which were under starvation for 12-18 hours.
(§1) The cyclic phosphates 1,3 cGP, 1,3 cPP, 1,2 cGP, 1,2 cPP, P-1,3 cGP and P-1,3 cPP and the controls αGP and βGP were dissolved in HBSS, or methanol to form stocks of 1 mM or 10 mM. They were diluted into the cell culture medium to a final concentration of up to 20 μM. At the assigned stimulation time (0.5-20 min.) the medium was aspirated under vacuum and the cells were washed 3 times with cold (4° C.) phosphate buffered saline (PBS). […] The protein concentration in each sample, as evaluated by the Bradford assay, was in the range of 1-1.5 mg/ml. […] Bound antibodies were detected by horseradish peroxidase-conjugated anti-rabbit antibodies (Transduction Laboratories, Lexington Ky.) after 2 hours incubation at room temperature, using the conventional ECL detection method. […]

[3] = tested on: tyrosine phosphorylated proteins in NIH 3T3 cells; assay: Tyrosine phosphorylation in NIH 3T3 cells (Western blot with anti-phosphotyrosine antibodies); assay type: cell-based; details: 1 min or 5 mins at 37° C., 0.5, 1, 2 or 4 μM, monoclonal antibodies (FIG. 3)
Method: NIH-3T3 cells were grown under similar conditions in 1640 Eagle medium at 10% bovine calf serum plus 2 mM glutamine.
as §1, with “(PBS). The cells were then freeze-thawed 3 times with liquid nitrogen in 0.5 ml of a lysis buffer of PBS containing 1 mM phenylmethylsulfonyl fluoride, a cocktail of protease inhibitors (aprotinin, leuproptin, pepstatin A, phenanthroline, benzamidine HCl each at a concentration of 10 μg/ml) and a cocktail of phosphatase inhibitors (80 mM β-glycerophosphate, 2 mM EGTA and 50 μM Na3VO4), and then scraped off. The lysate was then vortexed and centrifuged for 2 minutes at 12.000 g.” for “(PBS).”

perforated CHO cells = assay: Intracellular binding in perforated CHO cells (displacement of 1,3-cP32P); parameters: species or system Chinese hamster; details: 20 μM 1,3-cP32P, 5 minutes at 4° C., increasing amounts of competitor (FIG. 9)
Method: Radioactivity was scored after 2 washings with PBS at 4° C. as above. […] In this set of experiments the number of displaceable (i.e. specifically bound) ligands was estimated to be in the range of 10^7-10^8 per cell.

[4] = Stability of cyclic phosphates in PBS / aqueous solution (TLC); assay type: physicochemical; details: 10 mg/ml in PBS, 37°, up to 24 hours
Method: These possibilities were tested with the 4 cyclic phosphates (1,2 cGP, 1,3 cGP, 1,2 cPP and 1,3 cPPP (see Appendix A) in either aqueous solution or in cell lysates of CHO or NIH-3T3 cells (see Materials and Methods). 10 mg/ml cyclic phosphate in 1 ml of either PBS or PBS mixed with cell lysate (0.1 mg/ml protein) and incubated at 37° for up to 24 hours. Samples were tested at different times by thin layer chromatography on Silica gel 60 with n-propanol, concentrated ammonia, H2O (6:3:1 v/v/v). The Rr values for all 4 cyclic phosphates was in the range of 0.45-0.55 while α-GP and β-GP had Rf=0.14-0.16. This distinct difference allowed the qualitative detection of hydrolysis of the cyclic phosphate.

[5] = Stability of cyclic phosphates in cell lysates (TLC); details: 10 mg/ml in PBS mixed with CHO or NIH-3T3 cell lysate (0.1 mg/ml protein), 37°, up to 24 hours
Source text: This distinct difference allowed the qualitative detection of hydrolysis of the cyclic phosphate.

CHO cells = assay: Uptake of 32P labeled 1,3-cPP by CHO cells; assay type: cell-based, Chinese hamster; details: intact CHO cells, increasing amounts of unlabeled compound
Method: After 2 washings with PBS the cells were disintegrated in 1 M NaOH and radioactivity was scored with a β counter. The insert presents the magnified uptake profile for short incubations (up to 2 minutes) where the intercept (0 time incubation) corresponded to approximately 3×10^6 molecules per cell, while at equilibrium (above 2 hours incubation) incorporation corresponded to approximately 2×10^8 molecules per cell.

SMILES: O=P1(O)OCCCO1 [1,3 cPP, 1,3 cyclic propanediol phosphate]
- phosphorylation of insulin receptor (117 kD and 200 kD bands) relative to insulin only (insulin receptor): almost doubled
- inhibition of cell lysate phosphatase activity (cell lysate phosphatases): 15-20%
- proliferation versus cells in growth medium only [1]: significant inhibition
- synthesis of hemoglobin relative to sodium butyrate alone (K562 leukemia cells): 3 fold
- level of tyrosine phosphorylated proteins [2]: phosphorylation was most markedly seen in the band(s) having a molecular weight of about 35 kD and about 45 kD
- level of tyrosine phosphorylated proteins [3]: augmented tyrosine phosphorylation
- displacement of 1,3-cP32P in perforated CHO cells (perforated CHO cells): specific binding
- hydrolysis to the linear form in PBS [4]: No hydrolysis
- hydrolysis to the linear form by cell lysate [5]: No hydrolysis
- effect of unlabeled competitor on the uptake profile of 1,3-cP32P (CHO cells): remained essentially unaltered
